Test results from ChEMBL document CHEMBL3286197, “Synthesis and structure-activity relationship of cyclopentenone oximes as novel inhibitors of the production of tumor necrosis factor-α” (Bioorg Med Chem Lett, 2014).

Columns and labels:
PBMC [1] = test: Inhibition of LPS-induced TNF-alpha production in rat PBMC
PBMC [2] = test: Inhibition of LPS-induced TNF-alpha production in human PBMC; type: functional, cell-based

Row | Compound | IC50 (PBMC [1]) [nM] | IC50 (PBMC [2]) [nM]
1 | CCCC1=C(c2ccc(F)c(F)c2)/C(=N/O)CC1 | 720 | 
2 | CCCCCC1=C(c2ccc(F)c(F)c2)/C(=N/O)CC1 | 3650 | 
3 | O/N=C1\CCC(C2CCCCC2)=C1c1ccc(F)c(Cl)c1 | 420 | 
4 | CCC1=C(c2ccc(F)c(F)c2)/C(=N/O)CC1 | 4560 | 
5 | O/N=C1\CCC(C2CCCC2)=C1c1ccc(F)cc1 | 460 | 
6 | O/N=C1\CCC(C2CCCC2)=C1c1ccc(F)c(F)c1 | 130 | 260
7 | CC1=C(c2ccc(F)c(F)c2)/C(=N/O)CC1 | 48700 | 
8 | CCCC1=C(c2ccc(F)cc2)/C(=N/O)CC1 | 2660 | 
9 | O/N=C1\CCC(C2CCCC2)=C1c1ccc2c(c1)OCO2 | 350 | 
10 | O/N=C1\CCC(C2CCCC2)=C1c1cccc(O)c1 | 6220 | 
11 | CCCCC1=C(c2ccc(F)cc2)/C(=N/O)CC1 | 7880 | 
12 | O/N=C1\CCC(C2CCCCC2)=C1c1ccc(F)cc1 | 1240 | 
13 | CCCCC1=C(c2ccc3c(c2)OCO3)/C(=N/O)CC1 | 2520 | 2920
14 | CCCCCC1=C(c2cccnc2)/C(=N/O)CC1 | 14100 | 
15 | O/N=C1\CCC(C2CCCCC2)=C1c1ccc(F)c(F)c1 | 340 | 
16 | CCCCCC1=C(c2ccc(F)cc2)/C(=N/O)CC1 | 3830 | 4590
17 | O/N=C1\CCC(C2CCCC2)=C1c1cccc(C(F)(F)F)c1 | 3070 | 
18 | COc1ccc(C2CNC(=O)C2)cc1OC1CCCC1 (configuration not stated) [ROLIPRAM] | 270 | 270
